Data as given in patent publication US20260166128A1, “HUMAN AMYLIN ANALOG, AND DERIVATIVE THEREOF AND USE THEREOF” (priority 2022, published 2026).
Numbered stars: 1 amine (or outer) side, 2 acyl side, 3 side chain; on linkers, the order of the positions; unused ones are H or OH. Bridge positions count the residues as written; N and C are the ends. Square brackets hold non-standard residues; d marks the D form. Side chains are listed from the residue outwards. Peptide text beside a SMILES is read from it. * marks the point of attachment. C20 diacid = O=C(O)CCCCCCCCCCCCCCCCCCC(=O)*; γGlu = O=C(O)[C@H](CCC(=O)[*:2])N[*:1]; Hyp = O=C(O)[C@@H]1C[C@@H](O)CN1; hArg = N=C(N)NCCCC[C@H](N)C(=O)O; AEEA = NCCOCCOCC(=O)O

Molecular target: T1, human amylin receptor (Homo sapiens, UniProt O60896+P30988)
T1 construct: host or cells: CHO-K1/Ga15/AMY3 cells, further stably transfected with a CRE-luciferase plasmid
T1 sequence (P30988 25-474): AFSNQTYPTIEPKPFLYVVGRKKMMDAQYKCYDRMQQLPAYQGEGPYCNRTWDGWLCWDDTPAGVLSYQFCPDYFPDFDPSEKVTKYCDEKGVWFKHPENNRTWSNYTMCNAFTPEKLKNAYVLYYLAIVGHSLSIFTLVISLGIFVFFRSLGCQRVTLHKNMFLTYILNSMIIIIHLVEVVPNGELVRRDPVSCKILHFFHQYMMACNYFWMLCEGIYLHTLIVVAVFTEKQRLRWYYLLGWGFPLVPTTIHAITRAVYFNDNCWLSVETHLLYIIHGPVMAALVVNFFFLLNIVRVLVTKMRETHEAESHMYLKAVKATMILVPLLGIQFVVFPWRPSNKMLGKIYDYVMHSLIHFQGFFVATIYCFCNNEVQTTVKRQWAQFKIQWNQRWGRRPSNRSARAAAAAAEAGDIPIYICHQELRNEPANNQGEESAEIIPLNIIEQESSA
T1 sequence (O60896 24-148 partner): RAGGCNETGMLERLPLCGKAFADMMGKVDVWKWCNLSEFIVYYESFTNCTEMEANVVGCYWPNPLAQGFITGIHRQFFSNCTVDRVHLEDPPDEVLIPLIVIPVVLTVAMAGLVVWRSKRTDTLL
Test: Luciferase assay of amylin derivatives in amylin receptor/CRE-luc CHO cell line
Type: cell-based
Conditions: CHO-K1/Ga15/AMY3 CRE-luc cells, 24 hours incubation, F12 medium containing 10% FBS; read-out: EC50
Protocol: The experiment was intended to detect the activity or efficacy of the amylin derivatives on a human amylin receptor in vitro by luciferase assay.
50 μL of growth medium (F12 medium containing 10% FBS) was added into each well of a white 96-well plate, and the stably transfected amylin/CRE-lue CHO cells were inoculated into the white 96-well plate at a density of about 20,000 cells/well for activity determination.

Q: For `CC[C@H](C)[C@H](NC(=O)[C@@H]1CCCN1C(=O)[C@H](CCCCNC(=O)CC[C@H](NC(=O)CCCCCCCCCCCCCCCCCCC(=O)O)C(=O)O)NC(=O)[C@H](CC(C)C)NC(=O)[C@H](CC(N)=O)NC(=O)[C@H](CC(N)=O)NC(=O)[C@H](CO)NC(=O)[C@H](CO)NC(=O)[C@H](Cc1c[nH]cn1)NC(=O)[C@H](CCCNC(=N)N)NC(=O)[C@H](CC(C)C)NC(=O)[C@H](Cc1ccccc1)NC(=O)[C@H](CC(=O)O)NC(=O)[C@H](C)NC(=O)[C@H](CC(C)C)NC(=O)[C@H](CCCNC(=N)N)NC(=O)[C@H](CCC(N)=O)NC(=O)[C@@H](NC(=O)[C@H](C)NC(=O)[C@@H]1CSSC[C@H](NC(=O)[C@@H](N)CCCCNC(=N)N)C(=O)N[C@@H](CC(N)=O)C(=O)N[C@@H]([C@@H](C)O)C(=O)N[C@@H](C)C(=O)N[C@@H]([C@@H](C)O)C(=O)N1)[C@@H](C)O)C(=O)N[C@@H](CC(C)C)C(=O)N1CCC[C@H]1C(=O)N1CCC[C@H]1C(=O)N[C@H](C(=O)N[C@@H](CC(N)=O)C(=O)N[C@H](C(=O)NCC(=O)N[C@@H](CO)C(=O)N[C@@H](CC(N)=O)C(=O)N[C@H](C(=O)N1C[C@H](O)C[C@H]1C(N)=O)[C@@H](C)O)C(C)C)[C@@H](C)O` [PD077] (H-[hArg]CNTATCATQRLADFLRHSSNNLK([γGlu-C20 diacid])PILPPTNVGSNT[Hyp]-NH2; disulfide 2-7), which EC50 is on record?
A: The EC50 was 0.034 nM.

Q: With `CC[C@H](C)[C@H](NC(=O)[C@@H]1CCCN1C(=O)[C@H](CCCCNC(=O)CC[C@H](NC(=O)CCCCCCCCCCCCCCCCCCC(=O)O)C(=O)O)NC(=O)[C@H](CC(C)C)NC(=O)[C@H](CC(N)=O)NC(=O)[C@H](CC(N)=O)NC(=O)[C@H](CO)NC(=O)[C@H](CO)NC(=O)[C@H](Cc1c[nH]cn1)NC(=O)[C@H](CCCNC(=N)N)NC(=O)[C@H](CC(C)C)NC(=O)[C@H](Cc1ccccc1)NC(=O)[C@H](CC(=O)O)NC(=O)[C@H](C)NC(=O)[C@H](CC(C)C)NC(=O)[C@H](CCCNC(=N)N)NC(=O)[C@H](CCC(N)=O)NC(=O)[C@@H](NC(=O)[C@H](C)NC(=O)[C@@H]1CSSC[C@H](NC(=O)[C@@H](N)Cc2c[nH]cn2)C(=O)N[C@@H](CC(N)=O)C(=O)N[C@@H]([C@@H](C)O)C(=O)N[C@@H](C)C(=O)N[C@@H]([C@@H](C)O)C(=O)N1)[C@@H](C)O)C(=O)N[C@@H](CC(C)C)C(=O)N1CCC[C@H]1C(=O)N1CCC[C@H]1C(=O)N[C@H](C(=O)N[C@@H](CC(N)=O)C(=O)N[C@H](C(=O)NCC(=O)N[C@@H](CO)C(=O)N[C@@H](CC(N)=O)C(=O)N[C@H](C(=O)N1C[C@H](O)C[C@H]1C(N)=O)[C@@H](C)O)C(C)C)[C@@H](C)O` [PD078] (H-HCNTATCATQRLADFLRHSSNNLK([γGlu-C20 diacid])PILPPTNVGSNT[Hyp]-NH2; disulfide 2-7) as the compound, how does the EC50 read?
A: Its EC50 is 0.035 nM.

Q: With `CC[C@H](C)[C@H](NC(=O)[C@@H]1CCCN1C(=O)[C@H](CCCCNC(=O)CC[C@H](NC(=O)CCCCCCCCCCCCCCCCCCC(=O)O)C(=O)O)NC(=O)[C@H](CC(C)C)NC(=O)[C@H](CC(N)=O)NC(=O)[C@H](CC(N)=O)NC(=O)[C@H](CO)NC(=O)[C@H](CO)NC(=O)[C@H](Cc1c[nH]cn1)NC(=O)[C@H](CCCNC(=N)N)NC(=O)[C@H](CC(C)C)NC(=O)[C@H](Cc1ccccc1)NC(=O)[C@H](CC(=O)O)NC(=O)[C@H](C)NC(=O)[C@H](CC(C)C)NC(=O)[C@H](CCCNC(=N)N)NC(=O)[C@H](CCC(N)=O)NC(=O)[C@@H](NC(=O)[C@H](C)NC(=O)[C@@H]1CSSC[C@H](NC(=O)[C@@H](N)CC(=O)O)C(=O)N[C@@H](CC(N)=O)C(=O)N[C@@H]([C@@H](C)O)C(=O)N[C@@H](C)C(=O)N[C@@H]([C@@H](C)O)C(=O)N1)[C@@H](C)O)C(=O)N[C@@H](CC(C)C)C(=O)N1CCC[C@H]1C(=O)N1CCC[C@H]1C(=O)N[C@H](C(=O)N[C@@H](CC(N)=O)C(=O)N[C@H](C(=O)NCC(=O)N[C@@H](CO)C(=O)N[C@@H](CC(N)=O)C(=O)N[C@H](C(=O)N1C[C@H](O)C[C@H]1C(N)=O)[C@@H](C)O)C(C)C)[C@@H](C)O` [PD079] (H-DCNTATCATQRLADFLRHSSNNLK([γGlu-C20 diacid])PILPPTNVGSNT[Hyp]-NH2; disulfide 2-7) as the compound, how does the EC50 read?
A: Its EC50 is 0.131 nM.

Q: With `CC[C@H](C)[C@H](NC(=O)[C@@H]1CCCN1C(=O)[C@H](CCCCNC(=O)CC[C@H](NC(=O)CCCCCCCCCCCCCCCCCCC(=O)O)C(=O)O)NC(=O)[C@H](CC(C)C)NC(=O)[C@H](CC(N)=O)NC(=O)[C@H](CC(N)=O)NC(=O)[C@H](CO)NC(=O)[C@H](CO)NC(=O)[C@H](Cc1c[nH]cn1)NC(=O)[C@H](CCCNC(=N)N)NC(=O)[C@H](CC(C)C)NC(=O)[C@H](Cc1ccccc1)NC(=O)[C@H](CC(=O)O)NC(=O)[C@H](C)NC(=O)[C@H](CC(C)C)NC(=O)[C@H](CCCNC(=N)N)NC(=O)[C@H](CCC(N)=O)NC(=O)[C@@H](NC(=O)[C@H](C)NC(=O)[C@@H]1CSSC[C@H](NC(=O)[C@@H](N)CCC(=O)O)C(=O)N[C@@H](CC(N)=O)C(=O)N[C@@H]([C@@H](C)O)C(=O)N[C@@H](C)C(=O)N[C@@H]([C@@H](C)O)C(=O)N1)[C@@H](C)O)C(=O)N[C@@H](CC(C)C)C(=O)N1CCC[C@H]1C(=O)N1CCC[C@H]1C(=O)N[C@H](C(=O)N[C@@H](CC(N)=O)C(=O)N[C@H](C(=O)NCC(=O)N[C@@H](CO)C(=O)N[C@@H](CC(N)=O)C(=O)N[C@H](C(=O)N1C[C@H](O)C[C@H]1C(N)=O)[C@@H](C)O)C(C)C)[C@@H](C)O` [PD080] (H-ECNTATCATQRLADFLRHSSNNLK([γGlu-C20 diacid])PILPPTNVGSNT[Hyp]-NH2; disulfide 2-7) as the compound, how does the EC50 read?
A: Its EC50 is 0.11 nM.

Q: With `CC[C@H](C)[C@H](NC(=O)[C@@H]1CCCN1C(=O)[C@H](CCCCNC(=O)COCCOCCNC(=O)COCCOCCNC(=O)CC[C@H](NC(=O)CCCCCCCCCCCCCCCCCCC(=O)O)C(=O)O)NC(=O)[C@H](CC(C)C)NC(=O)[C@H](CC(N)=O)NC(=O)[C@H](CC(N)=O)NC(=O)[C@H](CO)NC(=O)[C@H](CO)NC(=O)[C@H](Cc1c[nH]cn1)NC(=O)[C@H](CCCNC(=N)N)NC(=O)[C@H](CC(C)C)NC(=O)[C@H](Cc1ccccc1)NC(=O)[C@H](CC(=O)O)NC(=O)[C@H](C)NC(=O)[C@H](CC(C)C)NC(=O)[C@H](CCCNC(=N)N)NC(=O)[C@H](CCC(N)=O)NC(=O)[C@@H](NC(=O)[C@H](C)NC(=O)[C@@H]1CSSC[C@H](NC(=O)[C@@H](N)CCCNC(=N)N)C(=O)N[C@@H](CC(N)=O)C(=O)N[C@@H]([C@@H](C)O)C(=O)N[C@@H](C)C(=O)N[C@@H]([C@@H](C)O)C(=O)N1)[C@@H](C)O)C(=O)N[C@@H](CC(C)C)C(=O)N1CCC[C@H]1C(=O)N1CCC[C@H]1C(=O)N[C@H](C(=O)N[C@@H](CC(N)=O)C(=O)N[C@H](C(=O)NCC(=O)N[C@@H](CO)C(=O)N[C@@H](CC(N)=O)C(=O)N[C@H](C(=O)N1C[C@H](O)C[C@H]1C(N)=O)[C@@H](C)O)C(C)C)[C@@H](C)O` [PD081] (H-RCNTATCATQRLADFLRHSSNNLK([AEEA-AEEA-γGlu-C20 diacid])PILPPTNVGSNT[Hyp]-NH2; disulfide 2-7) as the compound, how does the EC50 read?
A: Its EC50 is 0.031 nM.
